In brackets after ≈: the same amount, converted by molar mass. Like-named read-outs stand apart in the source and are kept apart here.
Experiments:
MSSA Newman = experiment: MIC test in TSB medium with MTT staining, MSSA Newman; type: cell-based, Staphylococcus aureus; details: Staphylococcus aureus
Protocol: MIC Test (Methicillin Susceptible Staphylococcus aureus (MSSA Newman))
Overnight cultures of MSSA Newman were grown up in TSB medium at 37° C. The cultures obtained were normalized with TSB to OD600=0.6 and diluted 100-fold. 1.5 μL of a dilution series of Example Compounds in DMSO (100×, in duplicate), and the diluted bacterial culture (150 μL) was added to wells of a sterile, clear 96 well plate and incubated at 37° C.

S. aureus ATCC 29213 = experiment: MIC test according to CLSI M7-A9, S. aureus ATCC 29213; type: cell-based; details: Staphylococcus aureus
Summary of the method: (§1)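 Per CLSI M7-A9, DMSO stocks diluted in cation-adjusted Mueller Hinton broth, plates incubated 24 h at 37 °C in air. MIC is the lowest concentration giving complete inhibition of visible growth, read visually and at 600 nm.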

S. aureus ATCC 43300 = experiment: MIC test according to CLSI M7-A9, S. aureus ATCC 43300; type: cell-based; details: Staphylococcus aureus
Summary of the method: as §1

S. aureus Newman = experiment: MIC test according to CLSI M7-A9, S. aureus Newman; type: cell-based; details: Staphylococcus aureus, CLSI M7-A9, CAMHB, 24 h (Table 3), read-out: S. aureus ATCC Newman MIC
Protocol: MIC Test (S. aureus ATCC 29213, S. aureus ATCC 43300 and S. aureus Newman)
Susceptibility testing of S. aureus ATCC 29213, ATCC 43300 and Newman was performed according to Clinical Laboratory Standard Institute (CLSI) guidelines M7-A9. Test articles were stored at room temperature prior to use, then dissolved in filtered sterile DMSO. Stock DMSO solutions were diluted further in cation-adjusted Mueller Hinton broth (CAMHB) to provide appropriate test concentrations. Cultures of S. aureus (ATCC 29213, ATCC 43300 or Newman) were added in accordance with CLSI guidelines and plates incubated at 37° C. in air for 24 h. Endpoints were determined visually (and by spectrophotometer at 600 nm) and the minimum inhibitory concentration (MIC) defined as the lowest concentration of test articles resulting in complete inhibition of visible bacterial growth. Results are detailed in Table 2 (S. aureus ATCC 29213 and ATCC 43300) and Table 3 (S. aureus ATCC 29213, ATCC 43300 and Newman).

[1] = TSB, 37° C., MTT staining after 7 h, read-out: MSSA Newman MIC at 7 h
[2] = TSB, 37° C., MTT staining after 24 h, read-out: MSSA Newman MIC at 24 h
[3] = ATCC29213, CLSI M7-A9, CAMHB, 24 h (Table 2), read-out: S. aureus ATCC 29213 MIC at 24 h
[4] = ATCC43300, CLSI M7-A9, CAMHB, 24 h (Table 2), read-out: S. aureus ATCC 43300 MIC at 24 h
[5] = ATCC29213, CLSI M7-A9, CAMHB, 24 h (Table 3), read-out: S. aureus ATCC 29213 MIC
[6] = ATCC43300, CLSI M7-A9, CAMHB, 24 h (Table 3), read-out: S. aureus ATCC 43300 MIC

Row | Compound | MIC (MSSA Newman; [1]) [µg/mL] | MIC (MSSA Newman; [2]) [µg/mL] | MIC (S. aureus ATCC 29213; [5]) [µg/mL] | MIC (S. aureus ATCC 43300; [6]) [µg/mL] | MIC (S. aureus Newman) [µg/mL] | further results
1 | CC(C)(C)c1ccc(-c2nc3cc(=O)[nH]n3c(=S)[nH]2)cc1 [Example 1, 2-(4-tert-butylphenyl)-4-sulfanylidene-3H,4H,6H,7H-pyrazolo[1,5-a][1,3,5]triazin-7-one] | 12.5 (≈ 41.6 µM) | 12.5 (≈ 41.6 µM) | – | – | – | MIC (S. aureus ATCC 29213; [3]): 16 µg/mL (≈ 53.3 µM); MIC (S. aureus ATCC 43300; [4]): 16 µg/mL (≈ 53.3 µM)
2 | Cc1cc(OCCCSc2nc(-c3ccc(C(C)(C)C)cc3)nc3cc(=O)[nH]n23)ccc1Cl [Example 2, 2-(4-tert-butylphenyl)-4-{[3-(4-chloro-3-methylphenoxy)propyl]sulfanyl}-6H,7H-pyrazolo[1,5-a][1,3,5]triazin-7-one] | – | – | – | – | – | MIC (MSSA Newman; 7 h, read-out: MSSA Newman MIC at 7 h): > 100 µg/mL; MIC (S. aureus ATCC 29213; ATCC29213, 24 h, read-out: S. aureus ATCC 29213 MIC at 24 h): > 32 µg/mL; MIC (S. aureus ATCC 43300; ATCC43300, 24 h, read-out: S. aureus ATCC 43300 MIC at 24 h): > 32 µg/mL
3 | Cc1cc(OCCCNc2nc(-c3ccc(C(C)(C)C)cc3)nc3cc(=O)[nH]n23)ccc1Cl [Example 14, 2-(4-tert-butylphenyl)-4-{[3-(4-chloro-3-methylphenoxy)propyl]amino}-6H,7H-pyrazolo[1,5-a][1,3,5]triazin-7-one] | 3.3 (≈ 7.08 µM) | 3.3 (≈ 7.08 µM) | – | – | – | MIC (S. aureus ATCC 29213; [3]): 4 µg/mL (≈ 8.58 µM); MIC (S. aureus ATCC 43300; [4]): 4 µg/mL (≈ 8.58 µM)
4 | COc1ccc(CNc2nc(-c3ccc(C(C)(C)C)cc3)nc3cc(=O)[nH]n23)cc1 [Example 15, 2-(4-tert-butylphenyl)-4-{[(4-methoxyphenyl)methyl]amino}-6H,7H-pyrazolo[1,5-a][1,3,5]triazin-7-one] | 3.1 (≈ 7.68 µM) | 12.5 (≈ 31 µM) | – | – | – | MIC (S. aureus ATCC 29213; [3]): 8 µg/mL (≈ 19.8 µM); MIC (S. aureus ATCC 43300; [4]): 8 µg/mL (≈ 19.8 µM)
5 | CCCCNc1nc(-c2ccc(C(C)(C)C)cc2)nc2cc(=O)[nH]n12 [Example 16, 4-(butylamino)-2-(4-tert-butylphenyl)-6H,7H-pyrazolo[1,5-a][1,3,5]triazin-7-one] | 6.2 (≈ 18.3 µM) | 12.5 (≈ 36.8 µM) | – | – | – | –
6 | CNc1nc(-c2ccc(C(C)(C)C)cc2)nc2cc(=O)[nH]n12 [Example 17, 2-(4-tert-butylphenyl)-4-(methylamino)-6H,7H-pyrazolo[1,5-a][1,3,5]triazin-7-one] | 50 (≈ 168 µM) | – | – | – | – | –
7 | COCCCNc1nc(-c2ccc(C(C)(C)C)cc2)nc2cc(=O)[nH]n12 [Example 27, 2-(4-tert-butylphenyl)-4-[(3-methoxypropyl)amino]-6H,7H-pyrazolo[1,5-a][1,3,5]triazin-7-one] | 50 (≈ 141 µM) | 100 (≈ 281 µM) | – | – | – | MIC (S. aureus ATCC 29213; [3]): > 32 µg/mL; MIC (S. aureus ATCC 43300; [4]): > 32 µg/mL
8 | CCCC(C)Nc1nc(-c2ccc(C(C)(C)C)cc2)nc2cc(=O)[nH]n12 (stereo not shown) [Example 28, 2-(4-tert-butylphenyl)-4-[(pentan-2-yl)amino]-6H,7H-pyrazolo[1,5-a][1,3,5]triazin-7-one] | 3.1 (≈ 8.77 µM) | 6.2 (≈ 17.5 µM) | – | – | – | MIC (S. aureus ATCC 29213; [3]): 16 µg/mL (≈ 45.3 µM); MIC (S. aureus ATCC 43300; [4]): 16 µg/mL (≈ 45.3 µM)
9 | CC(C)(C)c1ccc(-c2nc(NCCCCc3ccccc3)n3[nH]c(=O)cc3n2)cc1 [Example 29, 2-(4-tert-butylphenyl)-4-[(4-phenylbutyl)amino]-6H,7H-pyrazolo[1,5-a][1,3,5]triazin-7-one] | 1.6 (≈ 3.85 µM) | 3.1 (≈ 7.46 µM) | – | – | – | MIC (S. aureus ATCC 29213; [3]): 8 µg/mL (≈ 19.3 µM); MIC (S. aureus ATCC 43300; [4]): 16 µg/mL (≈ 38.5 µM)
10 | CC(C)(C)c1ccc(-c2nc(N)n3[nH]c(=O)cc3n2)cc1 [Example 37, 4-amino-2-(4-tert-butylphenyl)-6H,7H-pyrazolo[1,5-a][1,3,5]triazin-7-one] | 25 (≈ 88.2 µM) | – | – | – | – | –
11 | CC(C)(C)c1ccc(-c2nc(O)n3[nH]c(=O)cc3n2)cc1 [Example 38, 2-(4-tert-butylphenyl)-4-hydroxy-6H,7H-pyrazolo[1,5-a][1,3,5]triazin-7-one] | 12.5 (≈ 44 µM) | 12.5 (≈ 44 µM) | – | – | – | –
12 | Cc1cc(OCCNc2nc(-c3ccc(C(C)(C)C)cc3)nc3cc(=O)[nH]n23)ccc1Cl [Example 46, 2-(4-tert-butylphenyl)-4-{[2-(4-chloro-3-methylphenoxy)ethyl]amino}-6H,7H-pyrazolo[1,5-a][1,3,5]triazin-7-one] | 12.5 (≈ 27.7 µM) | 12.5 (≈ 27.7 µM) | – | – | – | –
13 | CCCCNc1nc(-c2ccc(C)cc2)nc2cc(=O)[nH]n12 [Example 70, 4-(butylamino)-2-(4-methylphenyl)-6H,7H-pyrazolo[1,5-a][1,3,5]triazin-7-one] | > 100 | > 100 | – | – | – | –
14 | Cc1oc(C(C)(C)C)cc1-c1nc(NCCCO)n2[nH]c(=O)cc2n1 [Example 93, 2-(5-tert-butyl-2-methylfuran-3-yl)-4-[(3-hydroxypropyl)amino]-6H,7H-pyrazolo[1,5-a][1,3,5]triazin-7-one] | – | – | 32 (≈ 92.6 µM) | 32 (≈ 92.6 µM) | 16 (≈ 46.3 µM) | –
15 | Cc1oc(C(C)(C)C)cc1-c1nc(NCCCNC2Cc3ccccc3C2)n2[nH]c(=O)cc2n1 [Example 94] | – | – | 16 (≈ 34.7 µM) | 16 (≈ 34.7 µM) | 16 (≈ 34.7 µM) | –
16 | O=c1cc2nc(C34CC5CC(CC(C5)C3)C4)[nH]c(=S)n2[nH]1 [Example 99, 2-(adamantan-1-yl)-4-sulfanylidene-3H,4H,6H,7H-pyrazolo[1,5-a][1,3,5]triazin-7-one] | – | – | 64 (≈ 212 µM) | 64 (≈ 212 µM) | 32 (≈ 106 µM) | –
17 | O=c1cc2nc(C34CC5CC(CC(C5)C3)C4)nc(NCCCO)n2[nH]1 [Example 100, 2-(adamantan-1-yl)-4-[(3-hydroxypropyl)amino]-6H,7H-pyrazolo[1,5-a][1,3,5]triazin-7-one] | – | – | 32 (≈ 93.2 µM) | 32 (≈ 93.2 µM) | 16 (≈ 46.6 µM) | –
18 | O=c1cc2nc(C34CC5CC(CC(C5)C3)C4)nc(NCCCNC3Cc4ccccc4C3)n2[nH]1 [Example 101, 2-(adamantan-1-yl)-4-({3-[(2,3-dihydro-1H-inden-2-yl)amino]propyl}amino)-6H,7H-pyrazolo[1,5-a][1,3,5]triazin-7-one] | – | – | 8 (≈ 17.4 µM) | 8 (≈ 17.4 µM) | 8 (≈ 17.4 µM) | –
19 | CC(=O)c1ccc(-c2nc(NCCCNC3Cc4ccccc4C3)n3[nH]c(=O)cc3n2)cc1 [Example 103, 2-(4-acetylphenyl)-4-({3-[(2,3-dihydro-1H-inden-2-yl)amino]propyl}amino)-6H,7H-pyrazolo[1,5-a][1,3,5]triazin-7-one] | – | – | 16 (≈ 36.2 µM) | 8 (≈ 18.1 µM) | 32 (≈ 72.3 µM) | –
20 | CC(=O)c1ccc(-c2nc(NCCCOc3ccc(Cl)c(C)c3)n3[nH]c(=O)cc3n2)cc1 [Example 104, 2-(4-acetylphenyl)-4-{[3-(4-chloro-3-methylphenoxy)propyl]amino}-6H,7H-pyrazolo[1,5-a][1,3,5]triazin-7-one] | – | – | 32 (≈ 70.8 µM) | 32 (≈ 70.8 µM) | 32 (≈ 70.8 µM) | –
21 | CC(C)(O)c1ccc(-c2nc(NCCCNC3Cc4ccccc4C3)n3[nH]c(=O)cc3n2)cc1 [Example 105, 4-({3-[(2,3-dihydro-1H-inden-2-yl)amino]propyl}amino)-2-[4-(2-hydroxypropan-2-yl)phenyl]-6H,7H-pyrazolo[1,5-a][1,3,5]triazin-7-one] | – | – | 32 (≈ 69.8 µM) | 16 (≈ 34.9 µM) | 32 (≈ 69.8 µM) | –
22 | CC(C)(C)c1ccc(-c2nc3c(Cc4ccccc4)c(=O)[nH]n3c(=S)[nH]2)cc1 [Example 106, 8-benzyl-2-(4-tert-butylphenyl)-4-sulfanylidene-3H,4H,6H,7H-pyrazolo[1,5-a][1,3,5]triazin-7-one] | – | – | 2 (≈ 5.12 µM) | 2 (≈ 5.12 µM) | 1 (≈ 2.56 µM) | –
23 | CC(C)(C)c1ccc(-c2nc(NCCCO)n3[nH]c(=O)c(Cc4ccccc4)c3n2)cc1 [Example 107, 8-benzyl-2-(4-tert-butylphenyl)-4-[(3-hydroxypropyl)amino]-6H,7H-pyrazolo[1,5-a][1,3,5]triazin-7-one] | – | – | > 128 | > 128 | 64 (≈ 148 µM) | –

Source: patent publication US20180162862A1 (President and Fellows of Harvard College, priority 2015, published 2018)
